Article PMC4409337, “Immucillins Impair Leishmania (L.) infantum chagasi and Leishmania (L.) amazonensis Multiplication In Vitro” (PLoS ONE, 2015)
Read-outs that look alike come from different tables or passages of the source.

Tests used:
[1] = system: nucleoside hydrolase from Leishmania (L.) donovani; parameters: method as in PMID 11738828; conditions: NH cloned in pET-22; cited from earlier work
[2] = system: Nucleoside hydrolase NH36 of L. (L.) donovani; format: biochemical, Leishmania (L.) donovani; conditions: substrate of NH36; for k cat /K m: catalytic efficiency; for K m / k cat: 25°C, 50 mM Hepes pH 7.4
Description: (§1) BL21DE3 E.coli were transformed with the synthetic plasmid pET 28b encoding the gene of NH36 of Leishmania (L.) donovani (EMBL, Genbank and DDJB data bases, access number AY007193) with a His6tag at the C-terminal. Expression was induced with 0.5 mM IPTG and overnight incubation at 20°C. Purification of NH36 was performed on a column of Ni-NTA Superflow resin (Qiagen, USA) eluted by a stepwise imidazole gradient and monitored by SDS-polyacrylamide gel electrophoresis and protein assay. The extinction coefficient of NH36 is 21.437 mM^-1 cm^-1 at 280 nm, as calculated with the ProtParam program from ExPASy, and was used to estimate protein concentration (http://ca.expasy.org/seqanalref/). The yield of NH36 after purification was 11.87 mg per Liter of bacterial growth culture. Non-specific His-proteins with weak interactions were eluted with 50–100 mM imidazole (S1 Fig). The purified NH36 started to elute with 150 mM imidazole. We used 250 mM of imidazol in elution buffer for purification of NH36.
Steady-state kinetic rates for NH36 were determined on the substrates inosine, guanosine, adenosine, uridine and cytidine. Hypoxanthine and adenine formation were coupled to xanthine oxidase (12.9 mM^-1 cm^-1 at 293 nm and 15.2 mM^-1 cm^-1 at 305 nm, respectively), and the others were followed by direct uv absorbance changes resulting from cleavage of the N-ribosidic bond. Reaction mixtures contained 50 mM Hepes (pH 7.4), 100 mM NaCl and 5 mM of DTT. One unit, and 0.1 unit of xanthine oxidase (XOD) were used as the coupling enzyme to the adenosine and inosine assays, respectively. Spectral changes for hydrolysis of guanosine, uridine and cytidine were 5.4 mM^-1 cm^-1 at 257 nm,1.8 mM^-1 cm^-1 at 280 nm and 1.8 mM^-1 cm^-1 at 288 nm, respectively. Variable concentrations of substrate and appropriate amounts of purified NH36 were added in all assays. The hydrolysis of nucleosides to bases and ribose was followed by continuous recording of optical absorbance after addition of the enzyme, in a CARY 300 UV-visible spectrophotometer. Control rates with no enzyme addition were subtracted from initial rates. Reactions with substrates were conducted at 25°C using 1 cm path length cuvettes containing 1 mL reaction volumes. Kinetic parameters of NH36 were obtained by fitting initial rates to the Michaelis−Menten equation using GraFit 5 (Erithacus Software).

NH of L. (L.) major = system: NH of L. (L.) major; parameters: method as in PMID 10409664; conditions: ref 13; cited from earlier work
[3] = Macrophage viability and cytotoxicity (Trypan Blue); conditions: female, BALB/c, mouse, peritoneal macrophages
Description: (§2) Alternatively, the immucillins were added at 0, 24 and 48 h and viability assessed after 72h. […] The amastigote growth was assessed 24 h after the last drug addition, on 200 cells in Giemsa stained coverslips and expressed as phagocytic index = percent of infected macrophages x average number of intracellular amastigotes. […] All experiments with mice were reviewed and approved by the Animal Care and Use Committee of the Instituto de Biofísica Carlos Chagas Fo.-UFRJ (CAUAP-CONCEA, Brazil, IMPPG-016) and were performed according to the guidelines of the National Institutes of Health, USA. We made all efforts in order to minimize animal suffering.

[4] = biological target: T1, Nucleoside hydrolase NH36 (Leishmania donovani, UniProt Q8WQX2); assay: Ki determination: inhibition of NH36 activity by immucillins; format: biochemical, Leishmania (L.) donovani; conditions: 10 mM inosine as substrate, 0.5 nM NH36, pH 7.4, room temperature
T1 sequence (Q8WQX2 1-314): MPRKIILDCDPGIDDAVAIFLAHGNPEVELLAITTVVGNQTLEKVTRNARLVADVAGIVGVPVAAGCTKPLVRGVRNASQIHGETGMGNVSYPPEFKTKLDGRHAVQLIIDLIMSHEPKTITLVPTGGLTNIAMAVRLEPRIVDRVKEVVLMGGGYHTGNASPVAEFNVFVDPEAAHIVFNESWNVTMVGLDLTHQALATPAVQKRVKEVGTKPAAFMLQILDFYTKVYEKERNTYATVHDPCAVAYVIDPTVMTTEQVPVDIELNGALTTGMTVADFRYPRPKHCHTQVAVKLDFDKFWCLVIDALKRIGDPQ
Description: as §1
The reaction mixtures contained 10 mM inosine as substrate, 50 mM Hepes (pH 7.4), 100 mM KCl, 5 mM DTT and 1 unit XOD. The hydrolysis of inosine to hypoxanthine and ribose was followed by continuous reading of optical absorbance at 293 nm, using variable concentrations of inhibitors in a CARY 300UV-visible spectrophotometer. Controls without enzyme and without inhibitors were included in all inhibition assays. The inhibition constant for each immucillin was obtained, using GraFit 5 (Erithacus Software), by fitting initial rates with variable inhibitor concentrations to the equation (vi/v0 = [S] / Km + [S] + Km[I] / Ki), where v i is the initial rate in the presence of the inhibitor, v 0 is the initial rate in the absence of the inhibitor, K m is the Michaelis constant for inosine, [S] and [I] are inosine and inhibitor concentrations, respectively, and Ki is the inhibition constant.

[5] = system: L. (L.) infantum chagasi promastigotes; assay: Transmission electron microscopy of treated promastigotes; format: cell-based, Leishmania (L.) infantum chagasi; conditions: 10 μM, 72 h
Text: The cells were washed with Milli Q water, dehydrated in increasing concentration of acetone and embedded in Epon (1: 1) (PolyBed 812). The ultrathin sections were obtained, contrasted with 5% uranyl acetate and lead citrate and observed under a Joel 1200 electron microscope.

[6] = system: L. (L.) amazonensis promastigotes; assay: In vitro growth of promastigotes in FBS supplemented Schneider's insect medium; format: cell-based, Leishmania (L.) amazonensis; conditions: Leishmania amazonensis
Text: The strain of Leishmania (L.) infantum chagasi MHOM/BR/1974/PP75 was obtained from the Leishmania Type Culture Collection (Fundacão Oswaldo Cruz, Rio de Janeiro, RJ, Brazil) and the strain of Leishmania (L.) amazonensis (MHOM/BR/1975/Josefa) was kindly given by Professor Rosâ[…] from Universidade Federal do Rio de Janeiro. Promastigotes were maintained by weekly transfers in screw-capped glass tubes containing Schneider's insect medium (Sigma Aldrich, MO, USA), pH 7.0, supplemented with 10% Fetal Bovine Serum (FBS) at 26°C. Stock solutions (20 mM) of immucillins IA […] prepared using Milli-Q purified water. Log phase promastigotes of L. (L.) infantum chagasi and L. […] Promastigotes were recorded in a Neubauer chamber after 24, 48, 72 and 96 hours of incubation at 26°C. […] We also assayed the possibility of reversing the inhibitory effect of IA in RPMI medium by the addition of adenosine to the culture medium. The concentration of adenosine in Schneider s insect serum supplemented medium was assessed by HPLC using a C-18 reverse-phase column as described.

[7] = system: L. (L.) infantum chagasi promastigotes; assay: as above; format: cell-based, Leishmania (L.) infantum chagasi
Text: The strain of Leishmania (L.) infantum chagasi MHOM/BR/1974/PP75 was obtained from the Leishmania Type Culture Collection (Fundacão Oswaldo Cruz, Rio de Janeiro, RJ, Brazil) and the strain of Leishmania (L.) amazonensis (MHOM/BR/1975/Josefa) was kindly given by Professor Rosâ[…] from Universidade Federal do Rio de Janeiro. Promastigotes were maintained by weekly transfers in screw-capped glass tubes containing Schneider's insect medium (Sigma Aldrich, MO, USA), pH 7.0, supplemented with 10% Fetal Bovine Serum (FBS) at 26°C. […] Log phase promastigotes of L. (L.) infantum chagasi and L. […] Promastigotes were recorded in a Neubauer chamber after 24, 48, 72 and 96 hours of incubation at 26°C. […] The concentration of adenosine in Schneider s insect serum supplemented medium was assessed by HPLC using a C-18 reverse-phase column as described.

[8] = system: intracellular amastigotes of L. (L.) infantum chagasi; assay: Replication of intracellular amastigotes in infected peritoneal macrophages (phagocytic index); format: cell-based, Leishmania (L.) infantum chagasi; conditions: for EC50: drugs (0.5–10 μM) added at 0 h, incubation 24 h, linear interpolation, read-out: EC50 (CI 95%)
Description: as §2, with “Alternatively, the immucillins were added at 0, 24 and 48 h and viability assessed after 72h.” left out

[9] = system: intracellular amastigotes of L. (L.) infantum chagasi; conditions: cited from earlier work
[10] = system: amastigotes of L. (L.) amazonensis; parameters: method as in PMID 18660990; conditions: ref 43; read-out: IC50 against amastigotes; cited from earlier work
[11] = system: strains of L. (L.) infantum chagasi; parameters: method as in PMID 23747751; conditions: cited from earlier work
[12] = single 10 μM dose at 0 h, compared to untreated controls

In the case of `O=c1[nH]cnc2c1ncn2[C@@H]1O[C@H](CO)[C@@H](O)[C@H]1O` [Inosine], the k cat [1] is given as 7.6 s⁻¹, the “k cat /K m” value [2] is given as 31800 M⁻¹ s⁻¹ and the K m [2] is given as 340 ± 30 µM. The k cat [2] was 10.8 ± 0.3 s ^-1 and the k cat (NH of L. (L.) major) was 119 s⁻¹.
With `O=c1[nH]cnc2c(CNC(CO)CO)c[nH]c12` [SMIH] the CC50 at 48 h [3] was 800 µM, the Ki [4] was greater than 5 µM and the “effect on cellular ultrastructure of promastigotes” value [5] was “complete alteration of their cellular morphology with intense cytoplasm vacuolization, enlarged vesicles and alterations in the kinetoplasts”. It also gave an inhibition at 0.05 µM ([6]; 50 nM, after 96 h of culture, read-out: percent growth inhibition on L. (L.) amazonensis) of 61%, an inhibition at 500 µM ([6]; 500 μM, after 96 h of culture, read-out: percent inhibition on L. (L.) amazonensis replication) of 71% and an IC50 ([6]; single addition at 0 h, evaluated after 48 hours, 26°C, read-out: IC50 (CI 95%) on L. (L.) amazonensis promastigotes in vitro growth) of 7 nM. For the same compound, the IC50 ([7]; Leishmania infantum, drugs added at 0, 24 and 48 h, after 48h, read-out: IC50 on promastigote growth, daily addition) was 1 nM, the IC50 ([7]; Leishmania infantum, drugs added at 0, 24 and 48 h, at 72 and 96 h, read-out: IC50 on promastigote growth, daily addition) was less than 0.01 nM and the IC50 ([7]; Leishmania infantum, single addition at 0 h, evaluated after 48 hours, 26°C, read-out: IC50 (CI 95%) on L. (L.) infantum chagasi promastigotes in vitro growth) was 8 nM. The inhibition at 0.05 µM ([7]; Leishmania infantum, 50 nM, after 96 h of culture, read-out: percent inhibition on L. (L.) infantum chagasi promastigote growth) was 99%, the “reduction of the IC50 by daily addition compared to single addition” value ([7]; daily addition (0, 24, 48 h) vs single addition (Table 2), 48 h) was 88% and the “reduction in the number of intracellular amastigotes” value (shortened to “reduction in the number”) ([8]; 10 μM added daily at 0, 24 and 48 h) was 95%. For the same compound, the EC50 ([8]; Leishmania infantum, Peritoneal macrophage) was 7.1 µM, the “decrease of intracellular amastigote parasite load” value ([8]; low micromolar concentrations, single to daily protocol) was 74–95% and the “reduction in the number” value [8, 12] was 70%.
For `O=c1ccn([C@@H]2O[C@H](CO)[C@@H](O)[C@H]2O)c(=O)[nH]1` [Uridine], the k cat [1] is given as 9.5 s⁻¹, the “k cat /K m” value [2] is given as 16000 M⁻¹ s⁻¹ and the K m [2] is given as 2,100 ± 561 μM. For the same compound, the k cat [2] was 34.3 ± 4.2 s ^-1 and the k cat (NH of L. (L.) major) was 32 s⁻¹.
In the case of Glucantime, the IC50 ([9]; ref 43, read-out: IC50 against replication of amastigotes) is given as 348 µM, the IC50 ([9]; ref 44, read-out: IC50 against intracellular amastigotes) is given as 1420 µM and the IC50 ([9]; ref 45, read-out: IC50 against intracellular amastigotes) is given as 31.1 µM. For the same compound, the IC50 [10] was 62.6 µM, the EC50 [8] was 7.1 µM and the “reduction in the number” value [8, 12] was 70%. For the same compound, the IC50 ([11]; Leishmania strains isolated from dogs) was 20 to 32.3 mM and the IC50 ([11]; human strains of L. (L.) infantum chagasi) was 0.43 to 5.76 mM.
